Values quoted from earlier work in patent CN104306347A, “一种卡维地洛双层缓释片及其制备方法” (BEIJING D-VENTUREPHARM TECHNOLOGY DEVELOPMENT Co Ltd, priority 2014, dated 2015).

How the values were obtained:
[1] = in vivo

## COc1ccccc1OCCNCC(O)COc1cccc2[nH]c3ccccc3c12 (stereo not shown) [卡维地洛]
[1]
  incidence of adverse reactions: 很低
  risk of postural hypotension when taken with food: 可减少引起体位性低血压的危险性
  tolerability: 耐受性良好
After oral administration
  first-pass effect: 有明显的首过效应
  oral absorption: 易于吸收
In vivo
  elimination phase half-life (t1/2b): 7~10 h
  excretion in urine as unchanged drug: < 2%
  plasma clearance: 500~700 ml/min
  steady-state volume of distribution: ~1.5 L
Metabolites excreted via bile then faeces
  metabolism: 代谢完全
oral
  absolute bioavailability (F): 25%~35%
Taken with food
  absorption when taken with food: 吸收减慢
  relative bioavailability when taken with food: 没有明显影响
